In patent US9682033B2, “Methods of treating postherpetic neuralgia with a topical formulation of a spiro-oxindole compound” (Teva Pharmaceuticals International GmbH, priority 2015, dated 2017):

How the values were obtained:
CYP3A4 = CYP3A4 (Homo sapiens, UniProt P08684); assay: Drug-drug interaction study in healthy subjects: midazolam (CYP3A4 substrate) pharmacokinetics (Biological Example 5); conditions: for Tmax / AUC(0-inf) / AUC(0-t) / Cmax: both, human, in vivo; for AUC(0-inf) / AUC(0-t) / Cmax: 3 mg
Sequence of CYP3A4 (P08684 whole entry): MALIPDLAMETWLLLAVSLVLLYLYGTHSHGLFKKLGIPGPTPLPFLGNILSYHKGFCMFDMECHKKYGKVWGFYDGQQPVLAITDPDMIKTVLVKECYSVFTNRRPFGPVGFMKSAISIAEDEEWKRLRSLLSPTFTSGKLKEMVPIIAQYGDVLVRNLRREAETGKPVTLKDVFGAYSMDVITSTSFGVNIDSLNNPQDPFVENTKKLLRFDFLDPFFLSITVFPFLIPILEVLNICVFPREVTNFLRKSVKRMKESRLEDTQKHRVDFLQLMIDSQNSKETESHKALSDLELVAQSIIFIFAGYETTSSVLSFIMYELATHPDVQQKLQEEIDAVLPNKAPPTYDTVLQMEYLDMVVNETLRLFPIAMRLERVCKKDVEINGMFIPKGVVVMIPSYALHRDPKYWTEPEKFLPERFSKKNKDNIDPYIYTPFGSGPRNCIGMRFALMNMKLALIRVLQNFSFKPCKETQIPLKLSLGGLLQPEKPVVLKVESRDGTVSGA
Source text: (§1) This was a single center, open-label, 1-sequence drug-drug interaction study in 32 healthy adult male and female subjects. The study consisted of a 28-day screening period, a 10-day inpatient treatment period, and a follow-up visit. Subjects meeting the study inclusion/exclusion requirements were admitted to the clinical research unit on day −1 and were confined until day 10.
(§2) Blood samples were collected for the assessment of the pharmacokinetics of midazolam and omeprazole.
(§3) The primary pharmacokinetic endpoints were the geometric mean ratios (90% confidence intervals [CIs]) for Cmax, AUC0-t, and AUC0-inf for midazolam and omeprazole on day 9 versus day 1.
(§4) Blood samples were collected for the assessment of the pharmacokinetics of the major metabolites of midazolam (1-OH-midazolam) and omeprazole (5-OH-omeprazole), and for the spiro-oxindole compound. Further secondary pharmacokinetic variables included Cmax, tmax, AUC0-t, AUC0-inf, CL/F, λz, t1/2, and % AUCext for 1-OH-midazolam and 5-OH-omeprazole, on days 1 and 9, and Cmax, morning predose concentrations (Ctrough), average plasma concentration over the dosing interval (Cave), and area under the plasma concentration-time curve over the dosing interval (AUC0-τ) were presented for the spiro-oxindole compound.
(§5) Descriptive statistics (n, mean, geometric mean, standard deviation [SD], % CV, median, minimum, and maximum) were used to summarize plasma midazolam, omeprazole and their metabolites, and the spiro-oxindole compound concentration for all subjects overall at each scheduled time point. Descriptive statistics (as noted above) were also used to summarize plasma omeprazole, 5-OH-omeprazole, and the spiro-oxindole compound concentration for all subjects overall by CYP2C19 genotype at each scheduled time point. Pharmacokinetic parameters were derived by noncompartmental analysis. Descriptive statistics (as noted above) were used to summarize the calculated pharmacokinetic parameters for midazolam, omeprazole and their metabolites, and the spiro-oxindole compound by treatment for all subjects. Descriptive statistics (as noted above) were also used to summarize the calculated pharmacokinetic parameters for omeprazole, 5-OH-omeprazole, and the spiro-oxindole compound by treatment and CYP2C19 genotype. Plots of geometric mean and individual plasma concentrations and of select pharmacokinetic parameters for midazolam, omeprazole and their metabolites and the spiro-oxindole compound at select sampling times were provided. Additionally, plots of individual select pharmacokinetic parameters by CYP2C19 phenotype for omeprazole at select time points were provided.

[1] = tested on: streptozotocin-induced neuropathic pain model; assay: Streptozotocin-induced neuropathic pain model, mechanical allodynia (paw withdrawal threshold); type: in vivo, rats; conditions: rats, topical, 30 minutes after the dose
Source text: Topical 4% Test Pharmaceutical Composition was compared with lidocaine and diclofenac for relief of mechanical allodynia in the streptozotocin-induced neuropathic pain model in rats.

CYP2C19 = assay: clinical; conditions: both, human, in vivo, 20 mg
Source text: as §1, §2, §3, §4, §5

[2] = 1-OH metabolite after oral midazolam, day 1
[3] = 1-OH metabolite after oral midazolam, day 9

SMILES: OCc1ncc2n1-c1ccc(Cl)cc1C(c1ccccc1F)=NC2 [1-OH-midazolam]
- tmax (median) (CYP3A4; 1-OH metabolite after oral midazolam, both days 1 and 9): 0.75 h
- AUC0-inf (geometric) (CYP3A4; [2]): 16.83 ng·h/mL
- AUC0-t (geometric) (CYP3A4; [2]): 15.82 ng·h/mL
- Cmax (geometric mean) (CYP3A4; [2]): 7.33 ng/mL
- t1/2 (geometric mean) (CYP3A4; [2]): 4.39 h
- AUC0-t (geometric) (CYP3A4; [3]): 17.18 ng·h/mL
- Cmax (geometric mean) (CYP3A4; [3]): 6.67 ng/mL
- t1/2 (geometric mean) (CYP3A4; [3]): 4.68 h

SMILES: O=C(O)Cc1ccccc1Nc1c(Cl)cccc1Cl [diclofenac]
- paw withdrawal threshold for the drug-treated paw (mechanical hyperalgesia) [1]: no significant increase in threshold

SMILES: CCN(CC)CC(=O)Nc1c(C)cccc1C [lidocaine]
- paw withdrawal threshold for the drug-treated paw (mechanical hyperalgesia) [1]: no significant increase in threshold

SMILES: Cc1ncc2n1-c1ccc(Cl)cc1C(c1ccccc1F)=NC2 [midazolam, reference compound]
- Tmax (CYP3A4): 0.75 h
- AUC(0-inf) (CYP3A4): 40.7 ng·h/mL
- AUC(0-t) (CYP3A4): 39.4 ng·h/mL
- Cmax (CYP3A4): 14.6 ng/mL
- Tmax (CYP3A4; po): 0.63 h
- AUC(0-inf) (CYP3A4; po): 43.8 ng·h/mL
- AUC(0-t) (CYP3A4; po): 42.2 ng·h/mL
- Cmax (CYP3A4; po): 16.9 ng/mL

SMILES: COc1ccc2[nH]c([S+]([O-])Cc3ncc(C)c(OC)c3C)nc2c1 (centres unmarked) [omeprazole]
- Tmax (CYP2C19): 2.5 h
- AUC0-inf (geometric mean) (CYP2C19; po): 633.97 ng·h/mL
- AUC0-t (geometric mean) (CYP2C19; po): 556.16 ng·h/mL
- Cmax (geometric mean) (CYP2C19; po): 227.04 ng/mL
- Tmax (CYP2C19; po): 2 h
- AUC(0-inf) (CYP2C19; po, AUC0-inf (geometric mean)): 635 ng·h/mL
- AUC(0-t) (CYP2C19; po, AUC0-t (geometric mean)): 545 ng·h/mL
- Cmax (CYP2C19; po, Cmax (geometric mean)): 227 ng/mL
